# Measurements as given in US12252524B2, “GIP/GLP1 co-agonist compounds” (Eli Lilly and Company, priority 2018, dated 2025).
# Numbered stars: 1 amine (or outer) side, 2 acyl side, 3 side chain; on linkers, the order of the positions; unused ones are H or OH. Square brackets hold non-standard residues; d marks the D form. Side chains are listed from the residue outwards. Peptide text beside a SMILES is read from it. * marks the point of attachment. C20 diacid = O=C(O)CCCCCCCCCCCCCCCCCCC(=O)*; γGlu = O=C(O)[C@H](CCC(=O)[*:2])N[*:1]; αMeL = CC(C)C[C@](C)(N)C(=O)O; AEEA = NCCOCCOCC(=O)O; Aib = CC(C)(N)C(=O)O
# Assays:
# human Gcg receptor = biological target: T1, human Gcg receptor (Homo sapiens, UniProt P47871); test: [125I]-Glucagon binding (SPA), human Gcg receptor; details: read-out: hGLcgR Ki, nM (SEM, n)
# T1 construct: expressed in transfected cells; crude membranes
# T1 sequence (P47871 26-477): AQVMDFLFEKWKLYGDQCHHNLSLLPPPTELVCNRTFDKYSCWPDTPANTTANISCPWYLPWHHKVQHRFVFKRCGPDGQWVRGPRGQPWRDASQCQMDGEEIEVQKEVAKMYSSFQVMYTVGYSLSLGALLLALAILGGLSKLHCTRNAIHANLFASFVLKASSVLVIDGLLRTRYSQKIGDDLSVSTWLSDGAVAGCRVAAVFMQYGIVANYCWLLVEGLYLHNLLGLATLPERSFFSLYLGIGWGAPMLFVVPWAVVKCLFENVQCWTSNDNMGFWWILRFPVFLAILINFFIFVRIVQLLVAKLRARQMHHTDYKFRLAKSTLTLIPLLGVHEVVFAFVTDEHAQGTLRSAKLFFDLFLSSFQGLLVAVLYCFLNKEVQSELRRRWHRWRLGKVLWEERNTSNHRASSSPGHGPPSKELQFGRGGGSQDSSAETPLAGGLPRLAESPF
# Method in brief: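 Crude membranes from cells expressing the receptor, prepared by hypotonic lysis in 50 mM Tris HCl pH 7.5 with protease inhibitors, homogenization and differential centrifugation, were used in a WGA-bead SPA. Binding buffer: 25 mM HEPES pH 7.4, 2.5 mM CaCl2, 1 mM MgCl2, bacitracin, Tween-20.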
# human GLP-1R [1] = biological target: T2, human GLP-1R (Homo sapiens, UniProt P43220); test: GLP-1R CHO cell β-arrestin recruitment assay; type: cell-based; design: host or cells: CHO-K1 PathHunter cells, assay-ready frozen; details: for EC50: CHO-K1 cells, PathHunter β-arrestin-2 recruitment, 0.1% casein, read-out: hGLP1R B-Arrestin2 Rel EC50 uM (SEM, n); for hGLP1R B-Arrestin2 % Top: normalized to GLP-1 maximum control
# T2 sequence (P43220 24-463): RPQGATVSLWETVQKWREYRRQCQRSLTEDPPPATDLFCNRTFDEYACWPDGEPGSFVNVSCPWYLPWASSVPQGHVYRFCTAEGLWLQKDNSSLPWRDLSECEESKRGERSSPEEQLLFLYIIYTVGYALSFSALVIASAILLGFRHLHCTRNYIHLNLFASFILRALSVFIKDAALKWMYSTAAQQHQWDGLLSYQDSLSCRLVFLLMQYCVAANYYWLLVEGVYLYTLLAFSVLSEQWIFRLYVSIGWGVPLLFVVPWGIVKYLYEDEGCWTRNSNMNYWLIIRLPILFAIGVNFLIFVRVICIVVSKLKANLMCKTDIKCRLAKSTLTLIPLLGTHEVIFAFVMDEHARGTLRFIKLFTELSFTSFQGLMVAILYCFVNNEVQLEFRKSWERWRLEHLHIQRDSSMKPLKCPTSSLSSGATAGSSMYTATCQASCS
# Method in brief: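 PathHunter CHO-K1 cells with ProLink-tagged human GLP-1R and enzyme-acceptor-tagged β-arrestin-2 treated with serially diluted peptides in assay buffer containing 0.1% hydrolyzed casein, 90 min at 37 °C.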
# [2] = biological target: human GLP-1 receptor (GLP-1R) (Homo sapiens, UniProt P43220); test: cAMP pharmacological functional assay in presence of casein, hGLP-1R; type: cell-based; details: HEK293 cells expressing hGLP-1R, 0.1% Casein, geometric mean; read-out: hGLP1R cAMP Rel EC50 nM (SEM, n)
# Chain of human GLP-1 receptor (GLP-1R) (P43220 24-463): as above
# [3] = biological target: T3, gastric inhibitory peptide receptor (GIPR) (Homo sapiens, UniProt P48546); test: cAMP pharmacological functional assay in presence of casein, hGIPR; type: cell-based; details: HEK293 cells expressing hGIPR, 0.1% Casein, geometric mean; read-out: hGIPR cAMP Rel EC50 nM (SEM, n)
# T3 sequence (P48546 22-466): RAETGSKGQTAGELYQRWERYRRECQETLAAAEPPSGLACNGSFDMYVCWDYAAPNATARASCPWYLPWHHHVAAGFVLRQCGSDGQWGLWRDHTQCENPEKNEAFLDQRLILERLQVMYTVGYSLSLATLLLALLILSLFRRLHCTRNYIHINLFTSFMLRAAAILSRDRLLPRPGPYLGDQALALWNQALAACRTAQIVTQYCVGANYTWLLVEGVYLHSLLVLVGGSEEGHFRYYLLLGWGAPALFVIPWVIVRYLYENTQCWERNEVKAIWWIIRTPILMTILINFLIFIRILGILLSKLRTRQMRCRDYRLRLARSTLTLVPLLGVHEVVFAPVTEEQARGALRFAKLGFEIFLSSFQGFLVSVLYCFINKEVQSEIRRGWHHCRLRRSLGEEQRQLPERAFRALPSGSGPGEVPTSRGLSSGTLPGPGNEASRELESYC
# human GIP receptor = biological target: T4, human GIP receptor (Homo sapiens, UniProt P48546); test: [125I]-GIP binding (SPA), human GIP receptor; details: read-out: hGIPR Ki, nM (SEM, n)
# T4 construct: expressed in transfected cells; crude membranes
# T4 sequence (P48546 22-466): T3 sequence (P48546 22-466)
# human GLP-1R [4] = biological target: T2, human GLP-1R; test: [125I]-GLP-1 binding (SPA), human GLP-1 receptor; design: expressed in transfected cells; crude membranes; details: read-out: hGLP1R Ki, (nM) (SEM, n)
# Method in brief: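 Ki values are geometric means with SEM over independent replicates on different days, derived from IC50s fitted by four-parameter nonlinear regression. The assay used crude cell membranes in HEPES buffer, pH 7.4, containing CaCl2, MgCl2, bacitracin and TWEEN-20.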
# human GLP-1R [5] = biological target: T2, human GLP-1R; test: GLP-1R HEK293 cell membrane [35S]GTPγS binding assay; type: biochemical; design: expressed in transfected cells; host or cells: HEK293 cells expressing human GLP-1R; membranes; details: HEK293 cell membranes expressing human GLP-1R, [35S]GTPγS binding; read-out: hGLP1R GTPgS Rel EC50 nM (SEM, n)
# Method in brief: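 Membranes from HEK293 cells expressing the receptor incubated with peptide and […] [35S]GTPγS in HEPES pH 7.4 buffer with NaCl, MgCl2, saponin and BSA, 30 min at room temperature. Gαs-bound label captured by anti-Gαs antibody/SPA beads and counted; EC50 from four-parameter logistic fit.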
Compound,Ki (human Gcg receptor),EC50 (human GLP-1R [1]),hGLP1R B-Arrestin2 % Top (human GLP-1R [1]),EC50 [2],EC50 [3],Ki (human GIP receptor),Ki (human GLP-1R [4]),EC50 (human GLP-1R [5])
CC[C@H](C)[C@H](NC(=O)[C@H](CC(C)C)NC(=O)[C@H](Cc1ccc(O)cc1)NC(=O)[C@H](CCC(=O)O)NC(=O)[C@@H](NC(=O)[C@H](Cc1ccccc1)NC(=O)[C@H](C)NC(=O)C(C)(C)NC(=O)[C@H](CCC(N)=O)NC(=O)[C@H](C)NC(=O)[C@H](CCCCNC(=O)COCCOCCNC(=O)COCCOCCNC(=O)CC[C@H](NC(=O)CCCCCCCCCCCCCCCCCCC(=O)O)C(=O)O)NC(=O)[C@H](CCCCN)NC(=O)[C@H](CC(=O)O)NC(=O)[C@H](CC(C)C)NC(=O)[C@](C)(CC(C)C)NC(=O)[C@@H](NC(=O)[C@H](CO)NC(=O)[C@H](Cc1ccc(O)cc1)NC(=O)[C@H](CC(=O)O)NC(=O)[C@H](CO)NC(=O)[C@@H](NC(=O)[C@H](Cc1ccccc1)NC(=O)[C@@H](NC(=O)CNC(=O)[C@H](CCC(=O)O)NC(=O)C(C)(C)NC(=O)[C@@H](N)Cc1ccccc1)[C@@H](C)O)[C@@H](C)O)[C@@H](C)CC)[C@@H](C)CC)C(=O)N[C@@H](CCC(=O)O)C(=O)NCC(=O)NCC(=O)N1CCC[C@H]1C(=O)N[C@@H](CO)C(=O)N[C@@H](CO)C(=O)NCC(=O)N[C@@H](C)C(=O)N1CCC[C@H]1C(=O)N1CCC[C@H]1C(=O)N1CCC[C@H]1C(=O)N[C@@H](CO)C(N)=O [Example 327] (H-F[Aib]EGTFTSDYSI[αMeL]LDKK([AEEA-AEEA-γGlu-C20 diacid])AQ[Aib]AFIEYLIEGGPSSGAPPPS-NH2; N-terminus assumed),114 nM,0.00379 µM,41.6%,0.27 nM,0.0548 nM,0.0667 nM,2.1 nM,0.287 nM
CC[C@H](C)[C@H](NC(=O)[C@H](CC(C)C)NC(=O)[C@H](Cc1ccc(O)cc1)NC(=O)[C@H](CCC(=O)O)NC(=O)[C@@H](NC(=O)[C@H](Cc1ccccc1)NC(=O)[C@H](C)NC(=O)C(C)(C)NC(=O)[C@H](CCC(N)=O)NC(=O)[C@H](C)NC(=O)[C@H](CCCCNC(=O)COCCOCCNC(=O)COCCOCCNC(=O)CC[C@H](NC(=O)CCCCCCCCCCCCCCCCCCC(=O)O)C(=O)O)NC(=O)[C@H](CCCCN)NC(=O)[C@H](CC(=O)O)NC(=O)[C@H](CC(C)C)NC(=O)[C@H](CC(C)C)NC(=O)[C@@H](NC(=O)[C@H](CO)NC(=O)[C@H](Cc1ccc(O)cc1)NC(=O)[C@H](CC(=O)O)NC(=O)[C@H](CO)NC(=O)[C@@H](NC(=O)[C@](C)(Cc1ccccc1)NC(=O)[C@@H](NC(=O)CNC(=O)[C@H](CCC(=O)O)NC(=O)C(C)(C)NC(=O)[C@H](N)Cc1ccc(O)cc1)[C@@H](C)O)[C@@H](C)O)[C@@H](C)CC)[C@@H](C)CC)C(=O)N[C@@H](CCC(=O)O)C(=O)NCC(=O)NCC(=O)N1CCC[C@H]1C(=O)N[C@@H](CO)C(=O)N[C@@H](CO)C(=O)NCC(=O)N[C@@H](C)C(=O)N1CCC[C@H]1C(=O)N1CCC[C@H]1C(=O)N1CCC[C@H]1C(=O)N[C@@H](CO)C(N)=O [Example 329],17 nM,0.00473 µM,63.4%,0.125 nM,0.132 nM,0.0439 nM,3.28 nM,0.343 nM
CC[C@H](C)[C@H](NC(=O)[C@H](CC(C)C)NC(=O)[C@H](Cc1ccc(O)cc1)NC(=O)[C@H](CCC(=O)O)NC(=O)[C@@H](NC(=O)[C@H](Cc1ccccc1)NC(=O)[C@H](CCC(=O)O)NC(=O)C(C)(C)NC(=O)[C@H](CCC(N)=O)NC(=O)[C@H](C)NC(=O)[C@H](CCCCNC(=O)COCCOCCNC(=O)COCCOCCNC(=O)CC[C@H](NC(=O)CCCCCCCCCCCCCCCCCCC(=O)O)C(=O)O)NC(=O)[C@H](CCC(=O)O)NC(=O)[C@H](CC(=O)O)NC(=O)[C@H](CC(C)C)NC(=O)[C@](C)(CC(C)C)NC(=O)[C@@H](NC(=O)[C@H](CO)NC(=O)[C@H](Cc1ccc(O)cc1)NC(=O)[C@H](CC(=O)O)NC(=O)[C@H](CO)NC(=O)[C@@H](NC(=O)[C@H](Cc1ccccc1)NC(=O)[C@@H](NC(=O)CNC(=O)[C@H](CCC(=O)O)NC(=O)C(C)(C)NC(=O)[C@@H](N)Cc1ccc(O)cc1)[C@@H](C)O)[C@@H](C)O)[C@@H](C)CC)[C@@H](C)CC)C(=O)N[C@@H](C)C(=O)NCC(=O)NCC(=O)N1CCC[C@H]1C(=O)N[C@@H](CO)C(=O)N[C@@H](CO)C(=O)NCC(=O)N[C@@H](C)C(=O)N1CCC[C@H]1C(=O)N1CCC[C@H]1C(=O)N1CCC[C@H]1C(=O)N[C@@H](CO)C(N)=O [Example 331] (H-Y[Aib]EGTFTSDYSI[αMeL]LDEK([AEEA-AEEA-γGlu-C20 diacid])AQ[Aib]EFIEYLIAGGPSSGAPPPS-NH2),> 969 nM,0.0128 µM,44.3%,0.0929 nM,0.0547 nM,0.0851 nM,11.4 nM,0.375 nM
CC[C@H](C)[C@H](NC(=O)[C@H](CC(C)C)NC(=O)[C@H](Cc1ccc(O)cc1)NC(=O)[C@H](CCC(=O)O)NC(=O)[C@@H](NC(=O)[C@H](Cc1ccccc1)NC(=O)[C@H](C)NC(=O)C(C)(C)NC(=O)[C@H](CCC(N)=O)NC(=O)[C@H](C)NC(=O)[C@H](CCCCNC(=O)COCCOCCNC(=O)COCCOCCNC(=O)CC[C@H](NC(=O)CCCCCCCCCCCCCCCCCCC(=O)O)C(=O)O)NC(=O)[C@H](CCC(=O)O)NC(=O)[C@H](CC(=O)O)NC(=O)[C@H](CC(C)C)NC(=O)[C@](C)(CC(C)C)NC(=O)[C@@H](NC(=O)[C@H](CO)NC(=O)[C@H](Cc1ccc(O)cc1)NC(=O)[C@H](CC(=O)O)NC(=O)[C@H](CO)NC(=O)[C@@H](NC(=O)[C@H](Cc1ccccc1)NC(=O)[C@@H](NC(=O)CNC(=O)[C@H](CCC(=O)O)NC(=O)C(C)(C)NC(=O)[C@@H](N)Cc1ccc(O)cc1)[C@@H](C)O)[C@@H](C)O)[C@@H](C)CC)[C@@H](C)CC)C(=O)N[C@@H](C)C(=O)NCC(=O)NCC(=O)N1CCC[C@H]1C(=O)N[C@@H](CO)C(=O)N[C@@H](CO)C(=O)NCC(=O)N[C@@H](C)C(=O)N1CCC[C@H]1C(=O)N1CCC[C@H]1C(=O)N1CCC[C@H]1C(=O)N[C@@H](CO)C(N)=O [Example 332] (H-Y[Aib]EGTFTSDYSI[αMeL]LDEK([AEEA-AEEA-γGlu-C20 diacid])AQ[Aib]AFIEYLIAGGPSSGAPPPS-NH2),397 nM,0.0171 µM,45.6%,0.184 nM,0.0745 nM,0.0497 nM,7.87 nM,0.453 nM
